Experimental data reported in patent US10874683B2, “N4-hydroxycytidine and derivatives and anti-viral uses related thereto” (Emory University, priority 2016, dated 2020).
Where two headings read alike, the source gives them in different places.

Tests used:
ZIKV = ZIKV antiviral assay; format: cell-based; conditions: Zika virus, read-out: ZIKV (EC50 μM)
[1] = Cytotoxicity in Vero cells (ZIKV table); conditions: African green monkey
[2] = Rodent pharmacokinetic experiment in DBA-1J mice; format: in vivo; conditions: for concentration at 24 h: oral, read-out: 24 hr plasma levels
Procedure: DBA-1J mice (6-8 weeks old, female) were acclimated for ≥2 days after receipt. Mice were weighed the day before dosing to calculate dosing volumes. Mice were dosed by oral gavage with drug at 30 mg/kg, 100 mg/kg & 300 mg/kg. The mice were sampled at […] time points: 0.5, 1, 2, 3, 4, 8 and 24 hrs (3 mice per time point for test drug). The mice were euthanized and their organs were collected (see below). In order to collected blood, mice with euthanized by CO2 at the appropriate time point listed above. Blood was obtained by cardiac puncture (0.3 ml) at each time point. Following blood collection, the organs were removed from the mice (see below). The blood was processed by inverting Li-Heparin tube with blood gently 2 or 3 times to mix well. The tubes were then placed in a rack in ice water until able to centrifuge (≤1 hour). As soon as practical, the blood was centrifuged at ˜2000×g for 10 min in a refrigerated centrifuge to obtain plasma. Then, using a 200 μL pipette, the plasma was transferred to a labeled 1.5 ml Eppendorf tube in ice water. The plasma was then frozen in freezer or on dry ice. The samples were stored at −80° C. prior to analysis. Organs were collected from euthanized mice. The organs (lungs, liver, kidney, spleen and heart) were removed, placed in a tube, and immediately frozen in liquid nitrogen. The tubes were then transferred to dry ice. The samples were saved in cryogenic tissue vials. Samples were analyzed by LC-MS/MS using an ABSCIEX 5500 QTRAP LC-MS/MS system with a Hypercarb (PGC) column.

Ross River virus = test: Vero cell cytopathic effect (CPE) model, Ross River virus; format: cell-based
EEE virus = test: organism not typed; format: cell-based; conditions: Vero
WEE virus = test: organism not typed; format: cell-based; conditions: Vero
VEE virus = test: organism not typed; format: cell-based; conditions: Vero
CHIK virus = test: organism not typed; format: cell-based; conditions: Vero
CEM cells = test: Cytotoxicity profile, CEM cells; format: cell-based; conditions: CEM cells (low of range)
Huh7 (liver) cells = test: Cytotoxicity profile, Huh7 (liver) cells; format: cell-based; conditions: Huh7 (liver) cells (high of range)
[3] = Toxicology after 6 day q.d. intraperitoneal injections in mice; format: in vivo
Excerpt: Alternatively, drug delivery by aerosol (nasal spray) administration may immediately achieve therapeutic levels of drug in the nasal mucosa and the brain.

[4] = rat, in vivo, po, 50 mg/kg
[5] = Rodent pharmacokinetic experiment in DBA-1J mice; format: in vivo; conditions: female, mouse, plasma, after IV dosing, read-out: plasma T1/2 (converted)
pestivirus, hepacivirus = conditions: Stuyver et al., Antimicrob Agents Chemother 2003; cited from earlier work
in vivo = conditions: male, SD, rat, po, 50 mg/kg

With `O=c1nc(NO)ccn1[C@@H]1O[C@H](CO)[C@H](O)C1O` (stereo partly drawn) [drawing 106] the EC50 (ZIKV) was 4.02 µM and the CC50 [1] was 50.4 µM.

For `O=c1nc(NO)ccn1[C@@H]1O[C@H](CO)[C@H](O)C1O` (stereo in doubt) [EIDD-01931, 1-(3,4-dihydroxy-5-(hydroxymethyl)tetrahydrofuran-2-yl)-4-(hydroxyamino)pyrimidin-2-one], the “Bioavailability (versus I.P. delivery)” value ([2]; 30 mg/kg PO dosing) was 65%, the “Bioavailability (versus I.P. delivery)” value ([2]; 100 and 300 mg/kg PO dosing) was 39-46% and the Cmax ([2]; female, DBA-1J, mouse, plasma, PO dosing 30 mg/kg) was 3 ng/mL. The Cmax ([2]; female, DBA-1J, mouse, plasma, PO dosing 100 mg/kg) was 7.7 ng/mL, the Cmax ([2]; female, DBA-1J, mouse, plasma, PO dosing 300 mg/kg) was 11.7 ng/mL and the half-life ([2]; female, DBA-1J, mouse, plasma, after PO dosing, read-out: plasma T1/2) was 246 to 282 min. The Tmax ([2]; female, DBA-1J, mouse, plasma, after oral dosing) was 15 to 30 min, the concentration at 24 h ([2]; female, DBA-1J, mouse, plasma, after 100 mg/kg dose) was about 100 nM and the concentration at 24 h ([2]; female, DBA-1J, mouse, plasma, after 300 mg/kg P.O. dose) was about 400 nM. For the same molecule, the EC50 (Ross River virus) was 2450 nM, the EC50 (EEE virus) was 1080 nM and the EC50 (WEE virus) was 1360 nM. The EC50 (VEE virus) was 1000 nM, the EC50 (CHIK virus) was 1280 nM and the selectivity index (CEM cells) was 8. For the same molecule, the selectivity index (Huh7 (liver) cells) was 232, the “body weight effect at highest dose tested” value ([3]; 100 mg/kg, 6 day q.d. IP, reversed on cessation of dosing) was “weight loss was observed” and the “NOEL (NO Effect Level)” value ([3]; 6 day q.d. intraperitoneal (IP) injections) was 33 mg/kg. For the same molecule, the tissue distribution [4] was “well distributed into all tissues tested”, the half-life [5] was 132 min and the antiviral activity (pestivirus, hepacivirus) was “antipestivirus and antihepacivirus activities”. For the same molecule, the bioavailability (in vivo) was 28%.
